{
  "source": "patent US20260248126A1",
  "about": "“BIOCIDE” (PURGOS APS, priority 2020, published 2026)",
  "origin": "cited, not measured here",
  "conditions": "cited from earlier work",
  "data": [
    {"smiles": "[Cl-].[Na+]", "note": "[table salt (NaCl), NaCl]", "values": [
      {"measurement": "LD50 (rat, oral)", "value": 3000, "unit": "mg"}
    ]}
  ]
}
